Measured values published in article PMC7894522, “Structure Based Design of Bicyclic Peptide Inhibitors of RbAp48” (Angewandte Chemie (International Ed. in English), 2020).
Starred links: 1 amine or outer side, 2 acyl side, 3 side chain; linkers in the order of their positions; H or OH if unused. Positions of bridges follow the written chain, without caps; N, C: chain ends. Residues, ends and D or L forms follow the SMILES beside them. TBMB = c1c(C[*:1])cc(C[*:3])cc1C[*:2]

What was measured:
U2OS cells = assay: Morphological cell painting assay; format: cell-based; settings: Supplemental table 6; cell painting profile similarity to compound 49, U2OS cells
Text: Encouraged by the promising results from the pulldown experiment, and in order to get insight into bioactivity and possible mode of action, we analyzed peptide 33 in a morphological cell painting assay. The cell painting assay is a target agnostic assay which determines a cells morphological profile after treatment with a compound of interest and compares it to the profiles of a set of reference compounds. ^[22] By identifying reference compounds with a similar profile a hypothesis of the compounds mode of action can be generated based on their annotated targets. ^[23] U2OS cells were treated with our compound and 579 parameters were analyzed. […] We therefore synthesized a variant modified with an N‐terminal TAT sequence to enhance its permeability (compound 49, see Table 1 and Supplemental Figure 4). ^[24] […] Applying compound 49 to the cell painting assay led to an induction of 5.9 % and the corresponding profile was compared to the set of 3000 reference compounds. […] To validate this hypothesis, we exposed U2OS cells to compound 49 and evaluated the levels of p53 by Western blot. […] The exact mechanism by which the compounds elevate levels of p53 requires further investigation. However, it has previously been shown that the NuRD complex, of which RbAp48 is a core component, is able to deacetylate p53 and thereby modulate its stability. ^[26] The effect is mediated by the MTA family of proteins from which the compounds described here are derived. […]
The described assay follows closely the method described by Bray et al. Initially, 5 µl U2OS medium were added to each well of a 384 -well plate (PerkinElmer CellCarrier -384 Ultra). Subsequently, U2OS cell were seeded with a density of 1600 cells per well in 20 µl medium. The plate was incubated for 10 min at the ambient temperatu re, followed by an a dditional 4 h incubation (37 °C, 5 % CO2). Compound treatment was performed with the Echo 520 acoustic dispenser (Labcyte) at final concentrations of 10 µM, 3 µM or 1 µM. Incubation with compound was performed for 20 h (37 °C, 5 % CO2). Subsequently, mitoc hondria were stained with Mito Tracker Deep Red (Thermo Fisher Scientific, Cat. No. M22426). The Mito Tracker Deep Red stock solution (1 mM) was diluted to a final concentration of 100 nM in prewarmed medium. The medium was removed fr om the plate leaving 1 0 µl residual volume and 25 µl of the Mito Tracker solution were added to each well. 22 The plate was incubated for 30 min in darkness (37 °C, 5 % CO2). To fix the cells 7 µl of 18.5 % formaldehyde in PBS were added, resulting in a fi nal formaldehyde conce ntration of 3.7 %. Subsequently, the plate was incubated for another 20 min in darkness (RT) and washed three times with 70 µl of PBS. (Biotek Washer Elx405). Cells were permeabilized by addition of 25 µl 0.1 % Triton X -100 to each well, followed by 15 min incubation (RT) in darkness. The cells were washed three times with PBS leaving a final volume of 10 µl. To each well 25 µl of a staining solution were added, which contains 1 % BSA, 5 µl/mL Phalloidin (Thermo Fisher Scientific, A123 81), 25 µg/ml Concanav alin A (Thermo Fisher Scientific, Cat. […]
conjugate (Thermo Fisher Scientific, Cat. No. W11262) and […] SYTO 14 solution (Thermo Fisher Scientific, Cat. No. S7576). The plate is incubated for 30 min (RT) in darkness and washed three times with 70 µl PBS. After the final washing step the PBS was not aspirated. The plates were sealed and centrifuged for 1 min at 500 rpm.
The plates were prepare d in triplicates with shifted layouts to reduce plate effects and imaged using a Micro XL High-Content Screening System (Molecular Devices) in 5 channels (DAPI: Ex350 -400/ Em410- […]
The generated images were processed with the CellProfiler package (https://cellprofiler.org/, version 3.0.0) on a computing cluster of the Max Planck Society to extract 1716 cell features (parameters) per microscope site. The data was then further aggregated as medians per well (9 sites -> 1 well), then […]

[1] = Peptide stability in MDA-MB-231 whole cell lysate; format: in vitro ADME; settings: human, 37°C, HPLC, duplicate
Protocol: To investigate whether the cyclization strategy influences the stability of the peptides we incubated 3, 8 and 33 in MDA‐MB‐231 cell lysate. […]
Fluorescence polarization assay […]
Isothermal Titration Calorimetry […]
Peptide stability was tested in whole cell lysate prepared from MDA-MB-231 cells using the freeze-thaw method. Peptides were dissolved in lysate (normalized to 5mg/ml protein using PBS) at 600 µM and incubated at 37°C. Samples were taken at different time points and mixed with an equal amount of MeOH containing 0.05 mg/ml ethylparaben as an i nternal standard. The samples were mixed and kept on ice for 15 minutes before centrifugation at 14000 rpm at 4 °C for 10 min. The supernatant was carefully removed and analyzed by HPLC. Peptide peaks were integrated and surface areas compared […]
Measurements were performed in duplicate.

RbAp48 = RbAp48 (Homo sapiens, UniProt Q09028); assay: Competitive fluorescence polarization (FP) assay using complex of peptide 1 and RbAp48; format: binding; design: Full length RbAp48 was cloned; His tag followed by 3C cleavage site (N, cleaved yes); made in house; host or cells: Sf9 insect cells; settings: Table 1; competitive FP, tracer peptide 1 1 nM, RbAp48 15 nM, 20 mM Tris-HCl, 150 mM NaCl, 0.01% Tween-20, pH 7.5, 30 min room temperature; lower limit set by 15 nM protein; read-out: IC50
In short: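 Sf9-expressed full-length RbAp48 (tag cleaved), 15 nM, displaced from 1 nM fluorescent peptide tracer in 20 mM Tris-HCl pH 7.5, 150 mM NaCl, 0.01% Tween-20. Read by FP (ex 485/em 535 nm) after 30 min at room temperature.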

Chain of RbAp48 (Q09028 whole entry): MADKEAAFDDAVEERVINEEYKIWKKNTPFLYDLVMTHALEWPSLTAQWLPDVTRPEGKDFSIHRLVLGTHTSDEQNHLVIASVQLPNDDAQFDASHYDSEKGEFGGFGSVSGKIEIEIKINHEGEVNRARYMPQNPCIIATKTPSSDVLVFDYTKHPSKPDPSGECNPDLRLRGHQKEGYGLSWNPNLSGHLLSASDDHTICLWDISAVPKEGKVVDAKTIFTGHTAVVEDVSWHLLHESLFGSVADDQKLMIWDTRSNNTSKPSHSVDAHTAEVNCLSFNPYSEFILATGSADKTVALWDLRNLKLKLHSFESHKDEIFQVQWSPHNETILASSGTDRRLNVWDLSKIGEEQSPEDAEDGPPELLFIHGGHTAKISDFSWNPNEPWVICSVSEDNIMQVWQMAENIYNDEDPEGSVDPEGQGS

With `COc1cc2nc(N3CCCN(C)CC3)nc(NC3CCN(Cc4ccccc4)CC3)c2cc1OC` [BIX01294] the “Biosimilarity (%)” value (U2OS cells) was 64.9%.

In the case of `CC(=O)N1CCN(c2ccc(OCC3COC(Cn4ccnc4)(c4ccc(Cl)cc4Cl)O3)cc2)CC1` (stereo not shown) [Ketoconazole], the “Biosimilarity (%)” value (U2OS cells) is reported as 61.9%.

With `CC(C)(C)C[C@@H]1N[C@@H](C(=O)N[C@H]2CC[C@H](O)CC2)[C@H](c2cccc(Cl)c2F)[C@]12C(=O)Nc1cc(Cl)ccc12` [MI-773] the “Biosimilarity (%)” value (U2OS cells) was 73.0%.

Work on `CC[C@H](C)[C@H](NC(=O)[C@@H]1CCCN1C(=O)[C@H](CCCCN)NC(=O)[C@H](Cc1ccc(O)cc1)NC(=O)[C@@H]1CCCN1C(=O)[C@H](CCCNC(=N)N)NC(=O)[C@H](CCCNC(=N)N)NC(=O)[C@H](C)NC(=O)[C@H](C)NC(=O)[C@H](CCCNC(=N)N)NC(=O)[C@H](CCCCN)NC(=O)[C@@H](NC(=O)[C@H](CCC(=O)O)NC(C)=O)[C@@H](C)O)C(=O)N[C@@H](C)C(N)=O` [Peptide 3] (Ac-ETKRAARRPYKPIA-NH2) yielded a half-life at 600 µM ([1]; MDA-MB-231 whole cell lysate (freeze-thaw), 5 mg/ml protein in PBS, peptide 600 µM, read-out: t 1/2 (half-life)) of 16 min, a remaining at 5 min, 600 µM ([1]; T 5 min, MDA-MB-231 whole cell lysate 5 mg/ml protein, 600 µM, read-out: % left) of 67.5% and a remaining at 0.25 h, 600 µM ([1]; T 15 min, MDA-MB-231 whole cell lysate 5 mg/ml protein, 600 µM, read-out: % left) of 49.2%. For the same molecule, the remaining at 1 h, 600 µM ([1]; T 60 min, MDA-MB-231 whole cell lysate 5 mg/ml protein, 600 µM, read-out: % left) was 0% and the IC50 (RbAp48) was 2620 ± 786 nM.

`CC(=O)N[C@H]1CSCc2cc3cc(c2)CSC[C@@H](C(=O)N[C@@H](C)C(N)=O)NC(=O)[C@@H]2CCCN2C(=O)[C@H](CCCCN)NC(=O)[C@H](Cc2ccc(O)cc2)NC(=O)[C@H](C)NC(=O)[C@H](CCCNC(=N)N)NC(=O)[C@H](CCCNC(=N)N)NC(=O)[C@H](C)NC(=O)[C@H](CSC3)NC(=O)[C@H](CCCNC(=N)N)NC(=O)[C@H](CCCCN)NC(=O)[C@H]([C@@H](C)O)NC1=O` [Peptide 42] (Ac-CTKRCARRAYKPCA-NH2; linker 1-5-13 via TBMB) showed an IC50 (RbAp48) of 131 ± 15.3 nM.

Molecule `CC(=O)N[C@H]1CSCc2cc3cc(c2)CSC[C@@H](C(=O)N[C@@H](C)C(N)=O)NC(=O)[C@@H]2CCCN2C(=O)[C@H](CCCCN)NC(=O)[C@H](C)NC(=O)[C@@H]2CCCN2C(=O)[C@H](CCCNC(=N)N)NC(=O)[C@H](CCCNC(=N)N)NC(=O)[C@H](C)NC(=O)[C@H](CSC3)NC(=O)[C@H](CCCNC(=N)N)NC(=O)[C@H](CCCCN)NC(=O)[C@H]([C@@H](C)O)NC1=O` [Peptide 43] (Ac-CTKRCARRPAKPCA-NH2; linker 1-5-13 via TBMB) has an IC50 (RbAp48) of 38.3 ± 1.9 nM.

`CC(=O)N[C@H]1CSCc2cc3cc(c2)CSC[C@@H](C(=O)N[C@@H](C)C(N)=O)NC(=O)[C@@H]2CCCN2C(=O)[C@H](C)NC(=O)[C@H](Cc2ccc(O)cc2)NC(=O)[C@@H]2CCCN2C(=O)[C@H](CCCNC(=N)N)NC(=O)[C@H](CCCNC(=N)N)NC(=O)[C@H](C)NC(=O)[C@H](CSC3)NC(=O)[C@H](CCCNC(=N)N)NC(=O)[C@H](CCCCN)NC(=O)[C@H]([C@@H](C)O)NC1=O` [Peptide 44] (Ac-CTKRCARRPYAPCA-NH2; linker 1-5-13 via TBMB) showed an IC50 (RbAp48) of 19.8 ± 3.6 nM.

Molecule `CC(=O)N[C@H]1CSCc2cc3cc(c2)CSC[C@H](NC(=O)[C@H](CCCNC(=N)N)NC(=O)[C@H](CCCCN)NC(=O)[C@H]([C@@H](C)O)NC1=O)C(=O)N[C@@H](C)C(=O)N[C@@H](CCCNC(=N)N)C(=O)N[C@@H](CCCNC(=N)N)C(=O)N1CCC[C@H]1C(=O)N[C@@H](Cc1ccc(O)cc1)C(=O)N[C@@H](CCCCN)C(=O)N[C@@H](C)C(=O)N[C@H](C(=O)N[C@@H](C)C(N)=O)CSC3` [Peptide 45] (Ac-CTKRCARRPYKACA-NH2; linker 1-5-13 via TBMB) has an IC50 (RbAp48) of 15.6 ± 2.2 nM.

With `CC(=O)N[C@H]1CSCc2cc3cc(c2)CSC[C@H](NC(=O)[C@H](CCCNC(=N)N)NC(=O)[C@H](CCCCN)NC(=O)[C@H]([C@@H](C)O)NC1=O)C(=O)N[C@@H](C)C(=O)N[C@@H](CCCNC(=N)N)C(=O)N[C@@H](CCCNC(=N)N)C(=O)N1CCC[C@H]1C(=O)N[C@@H](Cc1ccc(O)cc1)C(=O)N[C@@H](CCCCN)C(=O)N1CCC[C@H]1C(=O)N[C@H](C(N)=O)CSC3` [Peptide 46] (Ac-CTKRCARRPYKPC-NH2; linker 1-5-13 via TBMB) the IC50 (RbAp48) was 20.5 ± 1.4 nM.

For `NS(=O)(=O)OC[C@@H]1C[C@@H](n2ccc3c(N[C@H]4CCc5ccccc54)ncnc32)C[C@@H]1O` [Pevonedistat], the “Biosimilarity (%)” value (U2OS cells) was 63.6%.

For `CCN(CC)CCNC(=O)c1c(C)[nH]c(/C=C2\C(=O)Nc3ccc(F)cc32)c1C` [Sunitinib], the “Biosimilarity (%)” value (U2OS cells) was 63.5%.

For PFI-5, the “Biosimilarity (%)” value (U2OS cells) was 65.1%.
